The record followed here is US12448388B2, “PRMT5 inhibitors and uses thereof” (Gilead Sciences, Inc., priority 2023, dated 2025).

Each structure is given as a SMILES string.

The test system of the first experiment is HCT116 MTAP-deleted cell lines. Description: Cell viability assay (CellTiter-Glo, 7 days), HCT116 MTAP-deleted. Type of experiment: cell-based. Particulars: Homo sapiens, HCT-116. The procedure, abridged:
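Read-out was CellTiter-Glo luminescence after a 7-day incubation (37 °C, 5% CO2) of HCT116 cells, MTAP-deleted or WT, on dose-response compound plates. CC50 values come from each line; where marked *, selectivity is overstated because poor solubility impaired the WT CC50 measurement.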
Take `Nc1nc2cc(F)c(C(=O)N3CC4(CC[C@@H]3c3ccc(C(F)(F)F)cc3)CC4)cc2n2cncc12` (single isomer, unassigned) [Ff-154]: the CC50 (usually the concentration at which the toxic effect on the cells reaches its halfway point) was under 100 nM.

For the compound `Nc1nc2cc(F)c(C(=O)N3CC4(CC[C@H]3c3ccc(C(F)(F)F)cc3)CC4)cc2n2cncc12` (single isomer, unassigned) [Ff-155], the CC50 was 100 to 1000 nM.

The experiment is the same for the next values; noted with them: Homo sapiens, HCT-116; cell viability assay, HCT116 MTAP-deleted; class symbols; read-out: CC50.
For `CN(C(=O)c1cc2c(cc1F)nc(N)c1cncn12)[C@@H]1COc2cc([C@@H]3C[C@H]3c3ccccc3)ccc21` (racemic) [Ff-473, Trans-4-amino-7-fluoro-N-methyl-N-((3S)-6-(2-phenylcyclopropyl)-2,3-dihydrobenzofuran-3-yl)imidazo[1,5-a]quinoxaline-8-carboxamide], the CC50 is under 100 nM. As for `CN(C(=O)c1cc2c(cc1F)nc(N)c1cncn12)[C@@H]1COc2cc([C@@H]3C[C@H]3C3CC3)ccc21` (racemic) [Ff-474, Trans-N-((3S)-6-([1,1′-bi(cyclopropan)]-2-yl)-2,3-dihydrobenzofuran-3-yl)-4-amino-7-fluoro-N-methylimidazo[1,5-a]quinoxaline-8-carboxamide], the CC50 was under 100 nM. As to `CN(C(=O)c1cc2c(cc1F)nc(N)c1cncn12)[C@@H]1COc2cc(C3CCOC3)ccc21` (mixture of isomers) [Ff-484, Rac-4-amino-7-fluoro-N-methyl-N-((3S)-6-(tetrahydrofuran-3-yl)-2,3-dihydrobenzofuran-3-yl)imidazo[1,5-a]quinoxaline-8-carboxamide], the CC50 was under 100 nM. In the case of `Cc1ncc2c(N)nc3cnc(C(=O)N4C(C)CCC5Oc6cc(C(F)(F)F)ccc6C54)cc3n12` (racemic) [Ff-586, Rac-(4-amino-1-methylimidazo[1,5-a]pyrido[3,4-e]pyrazin-8-yl)(2-methyl-7-(trifluoromethyl)-3,4,4a,9b-tetrahydrobenzofuro[3,2-b]pyridin-1(2H)-yl)methanone], the CC50 is under 100 nM.

As for `Cc1ncn2c1c(N)nc1cnc(C(=O)N3C[C@H](F)CC4Oc5cc(C(F)(F)F)ccc5C43)cc12` (mixture of isomers) [Ff-650, Rac-(4-amino-3-methylimidazo[1,5-a]pyrido[3,4-e]pyrazin-8-yl)((3R,4aS,9bS)-3-fluoro-7-(trifluoromethyl)-3,4,4a,9b-tetrahydrobenzofuro[3,2-b]pyridin-1(2H)-yl)methanone], the CC50 was under 100 nM. On to `Nc1nc2cnc(C(=O)N3CC4(CCC4)C[C@@H]4Oc5cc(C(F)(F)F)ccc5[C@@H]43)cc2n2cncc12` (racemic) [Ff-688, Rac-(4-aminoimidazo[1,5-a]pyrido[3,4-e]pyrazin-8-yl)((4aS,9bS)-7-(trifluoromethyl)-4a,9b-dihydro-2H-spiro[benzofuro[3,2-b]pyridine-3,1′-cyclobutan]-1(4H)-yl)methanone], for which the CC50 was under 100 nM. As to `Cc1ncn2c1c(N)nc1cc(Cl)c(C(=O)N3CCC[C@@H]4Oc5nc(C(F)(F)F)ccc5[C@@H]43)cc12` (racemic) [Fg-29, Rac-(4-amino-7-chloro-3-methylimidazo[1,5-a]quinoxalin-8-yl)((4aS,9bS)-7-(trifluoromethyl)-3,4,4a,9b-tetrahydrofuro[2,3-b:4,5-b′]dipyridin-1(2H)-yl)methanone], the CC50 is under 100 nM.

Turning to `Nc1nc2cc(F)c(C(=O)N3CCO[C@@H]4CCc5ccccc5[C@@H]43)cc2n2cncc12` (relative stereo) [Ff-427, cis-2,3,4a,5,6,10b-hexahydrobenzo[f][1,4]benzoxazin-1-yl-(4-amino-7-fluoro-imidazo[1,5-a]quinoxalin-8-yl)methanone], the CC50 fell in the range of 100 to 1000 nM.

Staying with this experiment, now noted: Homo sapiens, HCT-116; cell viability, HCT116 MTAP-deleted; class symbols; read-out: CC50.
Turning to `Nc1nc2cc(F)c(C(=O)N3CCO[C@H]4Cc5cc(Br)ccc5[C@H]43)cc2n2cncc12` (single isomer, unassigned) [Ff-75], the CC50 was 100 to 1000 nM. `Nc1nc2cc(F)c(C(=O)N3CCO[C@@H]4Cc5cc(Br)ccc5[C@@H]43)cc2n2cncc12` (single isomer, unassigned) [Ff-76]: the CC50 is under 100 nM. The same measure, in the same setting: to `C[C@@H]1CN(C(=O)c2cc3c(cc2F)nc(N)c2cncn23)[C@H]2c3ccc(C(F)(F)F)cc3C[C@H]2O1` (single isomer, unassigned) [Ff-77] belongs under 100 nM. For `C[C@@H]1CN(C(=O)c2cc3c(cc2F)nc(N)c2cncn23)[C@@H]2c3ccc(C(F)(F)F)cc3C[C@@H]2O1` (single isomer, unassigned) [Ff-78], the CC50 is under 100 nM. Take `C[C@H]1CN(C(=O)c2cc3c(cc2F)nc(N)c2cncn23)[C@@H]2c3ccc(C(F)(F)F)cc3C[C@@H]2O1` (single isomer, unassigned) [Ff-80]: the CC50 was under 100 nM. Still for that read-out and setting: the result for `Nc1nc2cc(F)c(C(=O)N3CCO[C@H]4Cc5cc(C(F)(F)F)ccc5[C@H]43)cc2n2cncc12` (single isomer, unassigned) [Ff-83] reads 100 to 1000 nM; that for `Nc1nc2cc(F)c(C(=O)N3CCCC[C@@H]3c3ccc(C(F)(F)F)cc3F)cc2n2cncc12` (single isomer, unassigned) [Ff-151], under 100 nM; that for `Nc1nc2cc(F)c(C(=O)N3CCCC[C@H]3c3ccc(C(F)(F)F)cc3F)cc2n2cncc12` (single isomer, unassigned) [Ff-152], 100 to 1000 nM.

On to `C[C@H]1CN(C(=O)c2cc3c(cc2F)nc(N)c2cncn23)[C@H]2c3ccc(Br)c(F)c3C[C@H]2O1` (single isomer, unassigned) [Ff-164], for which the CC50 is under 100 nM.

Turning to `C[C@H]1CN(C(=O)c2cc3c(cc2F)nc(N)c2cncn23)[C@H]2c3ccc(C(F)F)c(F)c3C[C@H]2O1` (single isomer, unassigned) [Ff-171], the CC50 was under 100 nM. The same measure, in the same setting: to `C[C@@H]1CN(C(=O)c2cc3c(cc2F)nc(N)c2cncn23)[C@H]2c3cc(F)c(C(F)F)cc3C[C@H]2O1` (single isomer, unassigned) [Ff-172] belongs under 100 nM; to `C[C@H]1CN(C(=O)c2cc3c(cc2F)nc(N)c2cncn23)[C@H]2c3ccc(OC(F)(F)F)cc3C[C@H]2O1` (single isomer, unassigned) [Ff-184], under 100 nM. `C[C@@H]1CN(C(=O)c2cc3c(cn2)nc(N)c2cncn23)[C@H]2c3ccc(OC(F)(F)F)cc3C[C@H]2O1` (single isomer, unassigned) [Ff-185]: the CC50 was under 100 nM.

`C[C@H]1CN(C(=O)c2cc3c(cn2)nc(N)c2cncn23)[C@H]2c3ccc(OC(F)(F)F)cc3C[C@H]2O1` (single isomer, unassigned) [Ff-186]: the CC50 was under 100 nM. On the same count and under the same terms, the result for `C[C@@H]1CN(C(=O)c2ccc3nc(N)c4cncn4c3c2)[C@H]2c3ccc(OC(F)(F)F)cc3C[C@H]2O1` (single isomer, unassigned) [Ff-187] reads under 100 nM; that for `C[C@H]1CN(C(=O)c2ccc3nc(N)c4cncn4c3c2)[C@H]2c3ccc(OC(F)(F)F)cc3C[C@H]2O1` (single isomer, unassigned) [Ff-188], under 100 nM. Still for that read-out and setting: the result for `Cc1ncc2c(N)nc3ccc(C(=O)N4C[C@@H](C)O[C@@H]5Cc6cc(OC(F)(F)F)ccc6[C@@H]54)cc3n12` (single isomer, unassigned) [Ff-189] reads 100 to 1000 nM; that for `Cc1ncc2c(N)nc3ccc(C(=O)N4C[C@H](C)O[C@@H]5Cc6cc(OC(F)(F)F)ccc6[C@@H]54)cc3n12` (single isomer, unassigned) [Ff-190], 100 to 1000 nM.
